From patent US20260374739A1, “SMALL MOLECULAR WEIGHT CHEMICAL COMPOUND TO ANTAGONIZE EPH-EPHRIN TETRAMERIZATION AND INHIBIT BIDIRECTIONAL SIGNALING” (THE BOARD OF REGENTS OF THE UNIVERSITY OF TEXAS SYSTEM, priority 2022, published 2026)
“And” between values parts separate entries of the source, which are not always exact repeats. Equal entries are not always repeated. “Also recorded” adds a separate entry of the source. Where two headings read alike, the source gives them in different places. Marks after values point to notes of the source that are not given here.

How the values were obtained:
[1] = target: T1, EphrinB2-EphB2 (Homo sapiens, UniProt P29323); test: Octet 80 sec association/500 sec dissociation, immobilized human EphrinB2-Fc binding to soluble human EphB2-His; conditions: for EphB2 Inhibition Percent, Inhibition of Association ONLY: at 3.2 μM and 80 seconds; for EphB2 Inhibition Percent, Inhibition of Association ONLY / EphB2 Inhibition Percent, Inhibition of Association-Dissociation: immobilized human EphrinB2, 25 nM soluble human EphB2; for EphB2 Inhibition Percent, Inhibition of Association-Dissociation: at 3.2 μM and 580 seconds
T1 construct: soluble human EphB1-His, EphB2-His, and EphB4-His ectodomains; commercially available human EphrinB1-Fc (EB1), EphrinB2-Fc (EB2), and EphrinB3-Fc (EB3) ectodomain proteins; purchased
T1 sequence (P29323 19-543 limits assumed): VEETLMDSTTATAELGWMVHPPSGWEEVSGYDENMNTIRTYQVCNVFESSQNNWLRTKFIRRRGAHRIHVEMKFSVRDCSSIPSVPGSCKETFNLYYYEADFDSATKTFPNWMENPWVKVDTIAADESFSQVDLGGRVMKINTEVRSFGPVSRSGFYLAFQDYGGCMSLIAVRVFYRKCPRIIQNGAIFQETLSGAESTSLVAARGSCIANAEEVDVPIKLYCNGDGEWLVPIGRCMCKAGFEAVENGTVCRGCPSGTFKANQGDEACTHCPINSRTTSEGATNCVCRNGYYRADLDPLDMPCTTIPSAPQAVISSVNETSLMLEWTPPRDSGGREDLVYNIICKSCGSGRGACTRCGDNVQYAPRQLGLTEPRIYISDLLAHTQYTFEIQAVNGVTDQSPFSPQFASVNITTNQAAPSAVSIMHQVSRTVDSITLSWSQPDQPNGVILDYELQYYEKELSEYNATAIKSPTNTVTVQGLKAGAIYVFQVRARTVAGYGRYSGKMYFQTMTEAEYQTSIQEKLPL
Outline: (§1)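 EphrinB2-Fc captured on AHC biosensors, then soluble His-tagged EphB ectodomain (25 nM for % inhibition runs) associated 80 s and dissociated 500 s in PBS, 0.05% Tween-20, 1% DMSO ± compound. Compounds tested at 0.1–3.2 μM with a 10 μM max standard; IC50 from AUC of full traces or at 75 s and 135 s.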

[2] = target: T2, EphrinB2-EphB4 (Homo sapiens, UniProt P54760); test: Octet 80 sec association/500 sec dissociation, immobilized human EphrinB2-Fc binding to soluble human EphB4-His; conditions: for inhibition at 3.2 µM: 25 nM EphB4, 3.2 μM compound, A20-I as max control, 0* = less than 0, no inhibition; for EphB4 Inhibition Percent, Inhibition of Association ONLY: at 3.2 μM and 80 seconds; for EphB4 Inhibition Percent, Inhibition of Association ONLY / EphB4 Inhibition Percent, Inhibition of Association-Dissociation: immobilized human EphrinB2, 25 nM soluble human EphB4; for EphB4 Inhibition Percent, Inhibition of Association-Dissociation: at 3.2 μM and 580 seconds
T2 construct: soluble human EphB1-His, EphB2-His, and EphB4-His ectodomains; commercially available human EphrinB1-Fc (EB1), EphrinB2-Fc (EB2), and EphrinB3-Fc (EB3) ectodomain proteins; purchased
T2 sequence (P54760 16-539 limits assumed): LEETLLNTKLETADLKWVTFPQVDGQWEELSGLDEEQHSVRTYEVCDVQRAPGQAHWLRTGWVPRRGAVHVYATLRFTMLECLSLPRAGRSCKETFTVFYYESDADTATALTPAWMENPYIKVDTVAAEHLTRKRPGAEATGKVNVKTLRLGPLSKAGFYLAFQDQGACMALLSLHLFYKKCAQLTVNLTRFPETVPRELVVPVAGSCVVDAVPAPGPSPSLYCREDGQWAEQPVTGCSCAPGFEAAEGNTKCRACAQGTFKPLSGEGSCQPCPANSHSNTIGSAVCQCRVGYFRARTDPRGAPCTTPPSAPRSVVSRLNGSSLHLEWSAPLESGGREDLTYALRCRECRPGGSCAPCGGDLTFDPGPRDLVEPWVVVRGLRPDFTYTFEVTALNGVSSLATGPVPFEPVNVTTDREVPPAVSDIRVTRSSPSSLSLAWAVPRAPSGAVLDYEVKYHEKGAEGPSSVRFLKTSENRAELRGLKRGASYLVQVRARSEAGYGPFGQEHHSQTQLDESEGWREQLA
Outline: as §1

[3] = EphB2, 25 nM EphB2, 3.2 μM compound, A20-I as max control, 0* = less than 0, no inhibition
[4] = EphB2, 25 nM EphB2, 3.2 μM compound, A20-I as max control, 0* = less than 0, no inhibition, read-out: % Inhibition: Association + Dissociation (160 sec)
[5] = EphB2, 25 nM EphB2, 3.2 μM compound, A20-I as max control, 0* = less than 0, no inhibition, read-out: % Inhibition: Association ONLY (80 sec)
[6] = EphB4, read-out: % Inhibition: Association + Dissociation (160 sec)
[7] = EphB4, read-out: % Inhibition: Association ONLY (80 sec)

With `Oc1c(I)cc(CN2CCOCC2)c2cccnc12` [Compound 7, 7-iodo-5-(morpholinomethyl)quinolin-8-ol] the “% Inhibition: Association + Dissociation (160 sec)” value [1, 3] was 80.6% and 77.6% and 74.3%, the “% Inhibition: Association ONLY (80 sec)” value [1, 3] was 66.1% and 61.2% and 56.7% and the inhibition at 3.2 µM [1, 4] was 75.3%. It also gave an inhibition at 3.2 µM [1, 5] of 59.6%, an inhibition ([1]; EphB2, 10 μM 2×HCl salt, read-out: % Inhibited (AUC), Association) of 61.8% and an IC50 ([1]; EphB2, Association (75″), read-out: Absolute IC50) of 1660 nM. For the same compound, the IC50 ([1]; EphB2, Association (75″), read-out: Relative IC50) was 1200 nM, the IC50 ([1]; EphB2, Association (AUC), read-out: Absolute IC50) was 2240 nM and the IC50 ([1]; EphB2, Association (AUC), read-out: Relative IC50) was 1150 nM. The IC50 ([1]; EphB2, Dissociation (135″), read-out: Absolute IC50) was 410 nM, the IC50 ([1]; EphB2, Dissociation (135″), read-out: Relative IC50) was 340 nM and the IC50 ([1]; EphB2, Full AUC, read-out: Absolute IC50) was 240 nM. The IC50 ([1]; EphB2, Full AUC, read-out: Relative IC50) was 190 nM, the inhibition ([1]; EphB2, first 160 sec, 10 μM 2×HCl salt, read-out: % Inhibited (AUC), Association + Dissociation) was 76.5% and the inhibition ([1]; EphB2, highest dose, typically 3.2 μM, read-out: Association (% Inhibited (AUC))) was 56.4%. The inhibition ([1]; EphB2, highest dose, typically 3.2 μM, read-out: Association + Dissociation (% Inhibited (AUC))) was 74.7%, the “% Inhibited (AUC), Association + Dissociation” value ([2]; EphB4, 0-160 sec, 50 nM, 10 μM compound, Table 4) was 26.5% and the inhibition at 3.2 µM [2, 6] was 32.9%. The “% Inhibited (AUC), Association” value ([2]; EphB4, 50 nM, 10 μM compound, Table 4) was 13.3%, the inhibition ([2]; EphB4, 10 μM 2×HCl salt, read-out: % Inhibited (AUC), Association) was 13.9% and the IC50 ([2]; EphB4, Association (75″), read-out: Absolute IC50) was greater than 3200 nM. For the same compound, the IC50 ([2]; EphB4, Association (75″), read-out: Relative IC50) was 1700 nM, the IC50 ([2]; EphB4, Association (AUC), read-out: Absolute IC50) was greater than 3200 nM and the IC50 ([2]; EphB4, Association (AUC), read-out: Relative IC50) was 1660 nM. For the same compound, the IC50 ([2]; EphB4, Dissociation (135″), read-out: Absolute IC50) was 3020 nM, the IC50 ([2]; EphB4, Dissociation (135″), read-out: Relative IC50) was 980 nM and the IC50 ([2]; EphB4, Full AUC, read-out: Absolute IC50) was 1260 nM. It also gave an IC50 ([2]; EphB4, Full AUC, read-out: Relative IC50) of 890 nM, an inhibition ([2]; EphB4, first 160 sec, 10 μM 2×HCl salt, read-out: % Inhibited (AUC), Association + Dissociation) of 33.9% and an inhibition ([2]; EphB4, highest dose, typically 3.2 μM, read-out: Association (% Inhibited (AUC))) of 15.4%. The inhibition ([2]; EphB4, highest dose, typically 3.2 μM, read-out: Association + Dissociation (% Inhibited (AUC))) was 37%.

`Oc1c(Br)cc(CN2CCOCC2)c2cccnc12` [Compound 6, 4-((7-bromo-8-hydroxyquinolin-1-ium-5-yl)methyl)morpholin-4-ium chloride] was tested, and the “EphB2 Inhibition Percent, Inhibition of Association ONLY” value [1] was 61.0%, the “EphB2 Inhibition Percent, Inhibition of Association-Dissociation” value [1] was 76.8% and the “EphB4 Inhibition Percent, Inhibition of Association ONLY” value [2] was 20.0%. For the same compound, the “EphB4 Inhibition Percent, Inhibition of Association-Dissociation” value [2] was 35.9%.

With `Oc1ccc(CN2CCN(c3ccc(F)cc3F)CC2)c2cccnc12` [Compound 62, 5-((4-(2,4-difluorophenyl)piperazin-1-yl)methyl)quinolin-8-ol] the “EphB2 Inhibition Percent, Inhibition of Association ONLY” value [1] was 0*%, the “EphB2 Inhibition Percent, Inhibition of Association-Dissociation” value [1] was 0*% and the “EphB4 Inhibition Percent, Inhibition of Association ONLY” value [2] was 5.0%. For the same compound, the “EphB4 Inhibition Percent, Inhibition of Association-Dissociation” value [2] was 0*%.

With `COc1ccc2[nH]cc(C(=O)N3CCOCC3)c2c1` [Compound 63, (5-methoxy-1H-indol-3-yl)(morpholino)methanone] the “inhibition of EphrinB2-EphB interactions” value ([1]; 3.2 μM, EphB1, EphB2 and EphB4) was “showed no activity across the board”, the inhibition at 3.2 µM [1, 4] was 1.3% and the inhibition at 3.2 µM [1, 5] was 4.3%. The “EphB2 Inhibition Percent, Inhibition of Association-Dissociation” value [1] was 0*%, the inhibition at 3.2 µM [2, 6] was 0% and the inhibition at 3.2 µM [2, 7] was 0%.

`Oc1ccc(CN2CCN(Cc3ccc(C(F)(F)F)cc3)CC2)c2cccnc12` [Compound 48, 5-((4-(4-(trifluoromethyl)benzyl)piperazin-1-yl)methyl)quinolin-8-ol] showed an inhibition at 3.2 µM [1, 4] of 46.2%, an inhibition at 3.2 µM [1, 5] of 21.3% and an inhibition at 3.2 µM [2, 6] of 0%. For the same compound, the inhibition at 3.2 µM [2, 7] was 0%.

For `Oc1c(Cl)cc(CN2CCOCC2)c2cccnc12` [Compound 4, 4-((7-chloro-8-hydroxyquinolin-1-ium-5-yl)methyl)morpholin-4-ium chloride], the “EphB2 Inhibition Percent, Inhibition of Association ONLY” value [1] was 64.1%, the “EphB2 Inhibition Percent, Inhibition of Association-Dissociation” value [1] was 78.1% and the “EphB4 Inhibition Percent, Inhibition of Association ONLY” value [2] was 16.8%. The “EphB4 Inhibition Percent, Inhibition of Association-Dissociation” value [2] was 35.5%.

In the case of `O=[N+]([O-])c1cc(CN2CCS(=O)(=O)CC2)c2cccnc2c1O` [Compound 20, 4-((8-hydroxy-7-nitroquinolin-5-yl)methyl)thiomorpholine 1,1-dioxide], the inhibition at 3.2 µM [1, 4] is reported as 51.7%, the inhibition at 3.2 µM [1, 5] is reported as 36.7% and the “inhibition of EphB2-EphrinB2 binding” value ([1]; association step, general) is reported as 40%. The “selectivity among EphrinB2-EphB1/B2/B4” value ([2]; 3.2 μM, listed as QTM-NO2) was “ability to selectively inhibit EphrinB2-EphB2 and EphrinB2-EphB1 interactions, while sparing the EphrinB2-EphB4 interaction; also recorded: less action towards EphB4 but high specificity for EphB1 and EphB2”, the inhibition at 3.2 µM [2, 6] was 0% and the inhibition at 3.2 µM [2, 7] was 0%.
